Assay results taken from patent US5521315A, “Olefin substituted long chain compounds” (priority 1993, dated 1996).
Values joined by “and” are separate entries in the source; they are usually repeats but may differ in a detail not shown here. Identical values can stand only once. “Also recorded” adds a separate entry of the source. Like-named read-outs stand apart in the source and are kept apart here.

What was measured:
[1] = tested on: CMV promoter activity in transformed (adenovirus) cells; experiment: CMV promoter assay (gene transcription and translation; cytotoxicity in transformed cells); format: cell-based
Excerpt: (§1) FIG. 18 illustrates data regarding proliferative activity of various inventive compounds for inducting CMV promoter activity. The CMV promoter assay measures gene transcription and translation activity wherein any active compounds will have cytotoxic activity to inhibit cellular protein synthesis machinery in transformed (adenovirus) cells.
as §1, with “This example” for “FIG. 18”

[2] = tested on: mast cell degranulation; experiment: Serotonin release assay (inhibition of mast cell degranulation); format: cell-based; set-up: INCORP / TOTAL: unit not given here; details: 50 μM; for RELEASE-SPONT: average corrected for spontaneous release; for AVERAGE % RELEASE: average of duplicates; for inhibition at 50 µM: Mast cell
Excerpt: A serotonin release assay is utilized to study the utility of the inventive compounds for treatment of asthma and allergy. […] This assay measures mast cell degranulation, which is an early phase reaction to allergen challenge. Mast cells grown in tissue culture are first loaded with ^3 H serotonin, which is incorporated into the granules in the cells. The mast cells are sensitized with antigen specific monoclonal IgE, and then triggered to degranulate with the specific antigen (dinitorphenolbound to BSA (DNP)). When the cells degranulate, ^3 H Serotonin is released into the medium, and can be measured directly. The ability of the inventive compounds to inhibit the degranulation response is determined by the decrease in ^3 H Serotonin released in the presence of drug and is represented as % INHIBITION.
Specifically, the serotonin release assay seeds 2×10^5 cells in 0.5 ml medium in duplicate for spontaneous release, IgE+DNP, IgE+DNP+EtOH (vehicle control), and inventive compounds. […] The cells are incubated for 18 hours at 37° C. in 5% CO2, washed twice with 0.5 ml Isotonic Buffer (25 mM disodium PIPES pH 7.1,100 mM NaCl, 5 mM KCl, 5 mM glucose, 0.4 mM MgCl2, 1mM CaCl2, 0.1% BSA), and sterile filtered. 250 μl Isotonic Buffer is added per well and the plates are equilibrated in an incubator for about 10 min. Drug is added and cells are activated with 40 ng/ml DNP-BSA (1 mg/ml Diluted 1:200 in Isotonic Buffer) for 45 minutes using 2 μl/250 μl. Spontaneous release is determined in incubated cells with 250 μl Isotonic Buffer for 45 minutes and the reaction is stopped by removing supernatant and centrifuging at ~4000 rpm in microfuge for 15 seconds to remove any detached cells. Released radiolableled serotonin is counted. To determine amount of ^3 H-serotonin incorporated into the cells, (a) remove Isotonic Buffer and lyse cells by adding 250 μl 1% Triton-X100 in PBS, (b) add to 5 ml scintillation fluid, (c) wash 2× with Triton/PBS, and (d) add washes to scintillation tube. Percent serotonin release is calculated by dividing the amount of released serotonin by the sum of incorporated plus released serotonin and correcting for spontaneous released serotonin. Compound inhibition is calculated by dividing the percent serotonin release in the presence of a compound by the percent serotonin release in the absence of the compound.
This assay is described above and provides an in vitro model for an allergy and asthma therapeutic product.

[3] = tested on: PBMC (peripheral blood mononuclear cells); experiment: Two-way mixed lymphocyte reaction (MLR), proliferation of PBMC to allogeneic stimulation; format: cell-based, human; details: for mixed lymphocyte reaction activity: FIGS. 1 and 2
Excerpt: Various in vitro assays can be used to measure effects of the inventive compounds to module immune activity and have antitumor activity using a variety of cellular types. For example, a mixed lymphocyte reaction (MLR) provides a valuable screening tool to determine biological activity of each inventive compound. In the MLR, PBMCs (peripheral blood mononuclear cells) are obtained by drawing whole blood from healthy volunteers in a heparinized container and diluted with an equal volume of hanks balanced salt solution (HBSS). This mixture is layered on a […] density gradient, such as a Ficoll-Hypaque® gradient (specific gravity 1.08), and centrifuged at 1000×g for 25 minutes at room temperature or cooler. PBMC are obtained from a band at a plasma-Ficoll interface, separated and washed at least twice in a saline solution, such as HBSS. Contaminating red cells are lysed, such as by ACK lysis for 10 min at 37° C., and the PBMCs are washed twice in HBSS. The pellet of purified PBMCs is resuspended in complete medium, such as RPMI 1640 plus 20% human inactivated serum. Proliferative response of PBMC to allogeneic stimulation is determined in a two-way MLR performed in a 96-well microliter plate. Briefly, approximately 10^5 test purified PBMC cells in […] complete medium are co-cultured with approximately 10^5 autologous (control culture) or allogeneic (stimulated culture) PBMC cells, wherein the allogeneic cells are from HLA disparate individuals. Varying doses of compounds (drug) are added at the time of addition of cells to the microtiter plate. The cultures are incubated for 6 days at 37° C. in a 5% CO2 atmosphere. At the conclusion of the incubation tritiated thymidine is added (for example, […] of 40 to 60 Ci/mmole) and proliferation determined by liquid scintillation counting.
This example illustrates a mixed lymphocyte reaction assay of inventive compounds by showing the IC50 value of each compound in this assay and a dose response of several compounds to illustrate an IC50 determination.

[4] = tested on: PBMC in mixed lymphocyte assay culture; experiment: Percent viable cells in mixed lymphocyte assay culture after six days; format: cell-based, human; details: for cytotoxicity in mixed lymphocyte assay culture: 100 μM, six days of culture
[5] = tested on: human lymphocytes; experiment: IL-2 induced blastogenesis assay; format: cell-based; details: human IL-2, six days; FIG. 12
Experimental: (§2) Briefly, human lymphocytes are obtained from blood from normal volunteers and plated into wells at 2×10^5 cells/well. Human IL-2 ([…] or 5 μl of a 100 U/ml solution) and drug at various concentrations are added to each well. The cells are incubated for six days and then proliferation is determined by a standard tritiated thymidine incorporation procedure. […] However, both CT1406 and CT1442 were active, as is shown by IC50 values in FIG. 12.
as §2, with “This example illustrates the effects of four inventive compounds to inhibit proliferation of human lymphocytes in an IL-2 induced blastogenesis in vitro assay. […] Briefly,” for “Briefly,”, “cells am” for “cells are”

[6] = tested on: murine thymocyte; experiment: Murine thymocyte stimulated by ConA and IL-2 (T cell immune suppression); format: cell-based; details: FIGS. 8 and 9
Experimental: A thymocyte costimulator assay is conducted to evaluate the inventive compounds to inhibit activation and proliferation of thymocytes caused by stimulation with Con A and interleukin-1 (IL-1), or […]. Thymuses are obtained from mice (e.g., female Balb/C mice) and the thymuses are removed and dissociated into culture media (e.g., RPMI 1640 without serum supplementation). The dissociated thymus tissue and cell suspension is transferred to centrifuge tubes and allowed to settle, washed with HBSS and resuspended in serum-supplemented culture media (e.g., RPMI 1640 with 10% fetal calf serum). Any contaminating red cells are lysed, and viable cells are resuspended and counted. Thymocytes are plated (e.g., 96-well plates at a density of 2×10^5 cells/well) and a stimulating agent, such as Con A, IL-1 (e.g., IL-1α) or IL-2 is added to the well. The cells are incubated for 4 days at 37° C. On the fourth day, the cells are pulsed with tritiated thymidine and cell proliferation determined. Inventive compounds are added at the time of stimulating agent addition.
A third assay measures an ability of an inventive compound to inhibit IL-2-induced proliferation of murine thymocytes. Thymus glands are obtained from 4-6 week old mice and plated as a single cell suspension into flat bottomed wells in RPMI 1640 medium supplemented with 10% fetal calf serum. The inventive compounds are added to appropriate wells and the cells are incubated for 1-2 hrs. Concanavilin A (ConA, 0.25 mg/ml) and […] (20 ng/ml) are added and the plates are incubated for 4 days. Cell proliferation is determined as above.
FIG. 8 compares T cell immune suppression data of thirteen inventive compounds by comparing their IC50 values in a murine thymocyte stimulated by ConA and IL-2 in vitro model.

[7] = tested on: human lymphocytes; experiment: CD3 blastogenesis assay; format: cell-based; details: IL-2 or CD3 blastogenesis; FIG. 13
Experimental: (§3) The CD3 blastogenesis assay is virtually identical to the IL-2 blastogenesis assay described herein, except a human anti-CD3 monoclonal antibody (4 μg/ml, Boehinger Manheimm) is used instead of human IL-2 and the cells are incubated for only three days.
as §3, with “This example illustrates various IC50 values of five inventive compounds as determined by an IL-2 blastogenesis assay described in example 44 above or a CD3 blastogenesis assay. The” for “The”

Compound	IC50 [1]	RELEASE-SPONT ([2]; Table 4)	AVERAGE % RELEASE ([2]; Table 4)	inhibition at 50 µM ([2]; Table 4)	mixed lymphocyte reaction activity [3]	IC50 ([3]; Homo sapiens, PBMC, FIGS. 3 and 4)	cytotoxicity in mixed lymphocyte assay culture [4]	therapeutic window ([4]; cytotoxicity at 100 μM vs MLR IC50)	activity in IL-2 blastogenesis assay [5]	IC50 ([1]; Table 2, read-out: IC50)	activity in serotonin release assay [2]	% INHIBITION ([2]; Table 4)	% RELEASE ([2]; Table 4, duplicate wells)	INCORP ([2]; Table 4, duplicate wells)	RELEASE ([2]; Table 4, duplicate wells)	RELEASE X2 ([2]; Table 4, duplicate wells)	TOTAL ([2]; Table 4, duplicate wells)	% INHIBITION ([2]; Table 5)	T cell immune suppressing activity [6]	immune suppressing activity in blastogenesis assays [7]
C=CCCCCCCCCCn1c(=O)c2[nH]cnc2n(C)c1=O [CT1406, 1-(10-undecenyl)-3-methylxanthine]	60 µM	3.26%	19.81%	59.4%	the most potent activity	20 µM	the most cytotoxic at 100 μM	significant therapeutic window	active											
C=CCCCCn1c(=O)c2c(ncn2COC(=O)C(C)(C)C)n(C)c1=O [CT1441, 1-(5-hexenyl)-3-methyl-7-methylpivaloylxanthine]			15.92%							300 µM	appear to be quite potent	107.89%	15.85% and 16.00%	22567 and 24238	2125 and 2308	4250 and 4616	26817 and 28854	107.89%	potent immune suppressing activity	
CC/C=C\CCCCCn1c(=O)c2[nH]cnc2n(C)c1=O [CT1442, 1-(6-cis-nonenyl)-3-methylxanthine]		2.94%	19.49%	63.4%	the most potent activity		little or no cytotoxicity at concentrations well above its effective concentrations		active		increases the activity								potent immune suppressing activity	
CCCCC/C=C\C/C=C\CCCCCCCCn1c(=O)c2c(ncn2C)n(C)c1=O [CT1524, 1-(cis,cis-9,12-octadecadienyl)-3,7-dimethylxanthine]	50 µM	13.90%	30.46%	-73.3%	showed activity within dose ranges achievable in vivo						may be showing some toxicity at the concentration of 50 μM								potent immune suppressing activity	significant immune suppressing activity
C=CCCCCCCCCCn1c(=O)c2c(ncn2C)n(C)c1=O [CT2501, 1-(10-undecenyl)-3,7-dimethylxanthine]	200 µM	2.50%	19.06%	68.8%	showed activity within dose ranges achievable in vivo		little or no cytotoxicity at concentrations well above its effective concentrations				the two most potent compounds in this group									significant immune suppressing activity
CC/C=C/CCCCCn1c(=O)c2c(ncn2C)n(C)c1=O [CT2512, 1-(6-trans-nonenyl)-3,7-dimethylxanthine]	50 µM	1.65%	18.20%	79.5%							appears to increase the activity; also recorded: increases the activity									significant immune suppressing activity
Cyclosporin A [reference compound]									does not show significant activity											generally not very active
